Measured values as given in BigSolDB 2.1.

C[C@H]1O[C@@H](n2cc(F)c(=O)[nH]c2=O)[C@H](O)[C@@H]1O
solubility (mole fraction)
Conditions | in 2-ethylhexanol | in methanol
278.15 K | 1.43e-05 | 0.00296
283.15 K | 2.23e-05 | 0.00334
288.15 K | 3.13e-05 | 0.00414
293.15 K | 4.66e-05 | 0.00466
298.15 K | 6.85e-05 | 0.00561
303.15 K | 9.63e-05 | 0.00653
308.15 K | 0.000139 | 0.00757
313.15 K | 0.000182 | 0.00849
318.15 K | 0.000252 | 0.0101
323.15 K | 0.000373 | 0.0113
328.15 K | 0.000496 | 0.0133
